Patent US20120165223A1 (priority 2006, published 2012)

Experiments:
anaerobic bacteria = assay: Composition of flora in feces of HFA mice: total number of anaerobic bacteria; assay type: in vivo; settings: 17th day, 500 μg/Ml in drinking water
From the text: (§1) For the one week, the feces were picked asceptially with the interval of two to three days. The feces collected of colistin sulfate administeration, 2nd, 4th, 7th, 10th, 13th and 17th days are put in an encapsulated tube and moved to an anaerobic chamber immediately and is put in the PRAS (Prereduced and anaerobically sterilized) TGY medium with the ten times dilution of the weight of feces. The total number of anaerobic bacteria, the number of Bacteroides fragilis and Bifidobacterium spp. of the anaerobic bacteria, the number of aerobic bacteria, and the number of Esherichia coli and Enterococcus spp. of the aerobic bacteria are measured. […] (FIG. 7)

aerobic bacteria = assay: Composition of flora in feces of HFA mice: number of aerobic bacteria; assay type: in vivo; settings: 7th, 10th and 13th day from the medication, 500 μg/Ml in drinking water
From the text: as §1

glucuronidase = assay: Fecal enzyme activity of flora of HFA mice: glucuronidase; assay type: in vivo, human intestinal normal bacterial flora
Experimental: (§2) For the one week, the feces were picked free from germs with the interval of two to three days. The feces collected at the day of colistin sulfate administration, 2nd, 4th, 7th, 10th, 13th, 17th and 20th days and at 3rd and 5th day after the stop of medication are put in an encapsulated tube and moved to an anaerobic chamber immediately and the activity of glucuomidase, glucosidase, nitrate reductase and azoreductase produced by the human intestinal normal bacterial flora is measured. As a result glucuronidase is decreased throughout the period of administration and the withdrawal period in comparison with control groups and is not recovered even at the 5th day since the medication is stopped. Glucosidase is increased during the medication period in comparison with the control groups. Nitrate reductase is increased in comparison with the control group at the start day of administration and the 2nd day of the medication but is recovered. Azoreductase is increased in comparison with the control group until the 7th day of medication and then decreased.

glucosidase = assay: Fecal enzyme activity of flora of HFA mice: glucosidase; assay type: in vivo, human intestinal normal bacterial flora
Experimental: as §2

nitrate reductase = assay: Fecal enzyme activity of flora of HFA mice: nitrate reductase; assay type: in vivo, human intestinal normal bacterial flora
Experimental: as §2

azoreductase = assay: Fecal enzyme activity of flora of HFA mice: azoreductase; assay type: in vivo, human intestinal normal bacterial flora
Experimental: as §2

[1] = 5th day since the medication is stopped

Substance: colistin sulfate
- Total number of anaerobic bacteria in feces in comparison with HFA mice (anaerobic bacteria): increased by about twice
- Number of aerobic bacteria in feces (aerobic bacteria): decreased
- Glucuronidase activity, recovery (glucuronidase; [1]): not recovered
- Glucuronidase activity in comparison with control groups (glucuronidase; throughout the period of administration and the withdrawal period): decreased
- Glucosidase activity, recovery (glucosidase; [1]): not recovered
- Glucosidase activity in comparison with the control groups (glucosidase; during the medication period): increased
- Nitrate reductase activity, recovery (nitrate reductase; after the 2nd day of the medication): recovered
- Nitrate reductase activity in comparison with the control group (nitrate reductase; start day of administration and 2nd day of the medication): increased
- Azoreductase activity, recovery (azoreductase; [1]): not even recovered
- Azoreductase activity in comparison with the control group (azoreductase; after the 7th day of medication): decreased
- Azoreductase activity in comparison with the control group (azoreductase; until the 7th day of medication): increased
